Like-named read-outs stand apart in the source and are kept apart here. Residues, ends and D or L forms follow the SMILES beside them.
T1: ACE (from rabbit lung) (Oryctolagus cuniculus, UniProt P12822)
T1 construct: ACE (from rabbit lung) were obtained from Sigma-Aldrich Co; purchased Sigma-Aldrich Co. (St. Louis, MO, USA); host or cells: rabbit lung (tissue-derived enzyme)
T1 sequence (P12822 34-1310): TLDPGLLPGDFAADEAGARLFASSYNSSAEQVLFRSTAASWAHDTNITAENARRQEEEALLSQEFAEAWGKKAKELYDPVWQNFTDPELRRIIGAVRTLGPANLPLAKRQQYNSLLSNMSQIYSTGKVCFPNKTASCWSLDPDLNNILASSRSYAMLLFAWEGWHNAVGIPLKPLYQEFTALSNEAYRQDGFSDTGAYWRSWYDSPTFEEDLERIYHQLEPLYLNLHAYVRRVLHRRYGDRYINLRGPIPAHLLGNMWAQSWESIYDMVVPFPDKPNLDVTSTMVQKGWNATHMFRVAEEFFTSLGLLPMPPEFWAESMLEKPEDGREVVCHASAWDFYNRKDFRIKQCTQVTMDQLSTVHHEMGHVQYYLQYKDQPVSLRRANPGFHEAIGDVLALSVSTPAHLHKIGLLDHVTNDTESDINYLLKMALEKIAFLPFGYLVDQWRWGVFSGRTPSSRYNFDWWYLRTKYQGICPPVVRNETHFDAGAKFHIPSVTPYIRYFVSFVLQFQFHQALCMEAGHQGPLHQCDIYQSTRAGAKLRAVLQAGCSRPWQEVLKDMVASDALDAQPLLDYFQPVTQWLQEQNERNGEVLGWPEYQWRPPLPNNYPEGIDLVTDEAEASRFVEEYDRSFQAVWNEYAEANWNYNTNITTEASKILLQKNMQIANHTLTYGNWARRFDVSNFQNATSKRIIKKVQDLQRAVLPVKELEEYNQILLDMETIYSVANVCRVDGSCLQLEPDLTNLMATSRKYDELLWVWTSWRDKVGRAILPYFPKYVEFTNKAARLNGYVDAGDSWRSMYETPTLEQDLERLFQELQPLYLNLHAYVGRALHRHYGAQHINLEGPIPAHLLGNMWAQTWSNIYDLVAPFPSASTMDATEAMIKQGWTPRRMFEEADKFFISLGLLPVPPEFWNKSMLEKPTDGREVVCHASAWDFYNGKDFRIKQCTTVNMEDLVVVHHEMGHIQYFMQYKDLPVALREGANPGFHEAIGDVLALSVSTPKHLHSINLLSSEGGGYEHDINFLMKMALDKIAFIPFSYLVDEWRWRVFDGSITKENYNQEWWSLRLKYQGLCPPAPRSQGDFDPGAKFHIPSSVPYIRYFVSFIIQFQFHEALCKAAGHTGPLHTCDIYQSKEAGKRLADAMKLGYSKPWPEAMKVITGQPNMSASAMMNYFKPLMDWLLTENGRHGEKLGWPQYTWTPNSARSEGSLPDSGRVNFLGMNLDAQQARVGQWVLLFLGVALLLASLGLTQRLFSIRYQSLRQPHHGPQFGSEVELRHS

T2: angiotensin I-converting enzyme (ACE) from rabbit lung (rabbit) (UniProt P12822)
T2 sequence: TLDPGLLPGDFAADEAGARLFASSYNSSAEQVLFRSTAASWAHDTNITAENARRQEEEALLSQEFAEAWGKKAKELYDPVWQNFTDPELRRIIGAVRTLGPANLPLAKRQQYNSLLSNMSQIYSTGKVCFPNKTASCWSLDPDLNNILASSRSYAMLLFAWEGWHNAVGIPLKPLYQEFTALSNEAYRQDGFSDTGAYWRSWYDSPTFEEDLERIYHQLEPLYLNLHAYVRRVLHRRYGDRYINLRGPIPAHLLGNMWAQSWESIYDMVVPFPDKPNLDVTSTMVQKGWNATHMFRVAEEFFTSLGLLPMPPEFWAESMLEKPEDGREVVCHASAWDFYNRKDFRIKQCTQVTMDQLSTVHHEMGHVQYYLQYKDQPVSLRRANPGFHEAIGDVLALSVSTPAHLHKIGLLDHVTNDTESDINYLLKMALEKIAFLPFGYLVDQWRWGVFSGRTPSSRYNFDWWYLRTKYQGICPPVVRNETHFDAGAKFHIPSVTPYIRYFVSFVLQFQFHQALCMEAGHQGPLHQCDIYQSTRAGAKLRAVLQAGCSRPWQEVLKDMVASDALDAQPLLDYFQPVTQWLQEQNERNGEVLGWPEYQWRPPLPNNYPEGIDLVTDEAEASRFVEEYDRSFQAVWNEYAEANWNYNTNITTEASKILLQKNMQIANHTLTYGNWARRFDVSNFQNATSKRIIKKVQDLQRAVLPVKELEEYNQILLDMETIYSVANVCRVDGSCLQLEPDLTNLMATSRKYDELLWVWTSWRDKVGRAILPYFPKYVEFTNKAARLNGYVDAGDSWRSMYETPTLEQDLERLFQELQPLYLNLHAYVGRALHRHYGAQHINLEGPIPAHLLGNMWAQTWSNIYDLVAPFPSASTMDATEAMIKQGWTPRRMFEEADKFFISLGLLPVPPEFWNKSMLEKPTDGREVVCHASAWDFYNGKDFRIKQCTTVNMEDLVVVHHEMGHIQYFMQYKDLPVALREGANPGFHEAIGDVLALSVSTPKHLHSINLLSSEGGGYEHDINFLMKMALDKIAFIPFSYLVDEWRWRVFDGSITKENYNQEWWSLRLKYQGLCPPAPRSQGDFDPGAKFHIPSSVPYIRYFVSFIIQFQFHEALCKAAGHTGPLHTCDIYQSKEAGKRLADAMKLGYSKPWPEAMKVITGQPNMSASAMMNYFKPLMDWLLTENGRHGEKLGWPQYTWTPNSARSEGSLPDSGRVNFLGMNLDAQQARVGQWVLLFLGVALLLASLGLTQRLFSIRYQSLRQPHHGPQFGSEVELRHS


How the values were obtained:
[1] = target: T1, ACE (from rabbit lung); experiment: ACE inhibitory activity (HHL substrate, RP-HPLC of hippuric acid); type: biochemical
Excerpt: Wheat gluten was obtained from CF Haishi Biotechnology Ltd. Co. (Beijing, China) and kept in sealed plastic bags at room temperature until use. Alcalase 2.4L (2.4 AU/g) was purchased from Novo Nordisk (Copenhagen, Denmark). Protex 7L (1600 AU/g) and α-amylase (26,000 RAU/g) were bought from Genencor Division of Danisco (Rochester, NY, USA). Fluorescein sodium salt, Trolox, DPPH, 2,2′-azobis(2-methylpropionamidine) dihydrochloride (AAPH), hippuryl-histidyl-leucine (HHL), hippuric acid (HA), and ACE (from rabbit lung) were obtained from Sigma-Aldrich Co. (St. Louis, MO, USA). The ABTS assay kit was supplied by Beyotime Biotechnology (Haimen, China). Acetonitrile and methanol were provided by Fisher Scientific (Pittsburgh, PA, USA). Trifluoroacetic acid (TFA) was supplied by Alfa Aesar (Ward Hill, MA, USA). Synthesized peptides were obtained from Scilight Biotechnology Co., Ltd (Beijing, China). The purity of the synthesized peptides was more than 98% according to HPLC analysis. All other chemicals were of analytical grade.
The modified approach of Cushman and Cheung[68] was used to analyze ACE inhibitory activity. Briefly, the preincubation of 20 µL of sample and 30 µL of ACE solution (60 mU/mL) was performed at 37 °C for 5 min. After adding 50 µL of the substrate (7.6 mmol/L HHL in 50 mmol/L sodium borate buffer containing 300 mmol/L NaCl at pH 8.3), the 30-min incubation of the mixture was performed at ambient temperature. The reaction was ceased with 100 µL of 1.0 mol/L HCl. RP-HPLC was employed to determine the amount of HA liberated by ACE on an Inertsil ODS-SP C18 column (4.6 mm × 150 mm, Shimadzu, Kyoto, Japan). The peak area was subject to the calculation of ACE inhibitory activity.

[2] = test system: ACE; settings: cited from earlier work
[3] = target: T2, angiotensin I-converting enzyme (ACE) from rabbit lung (rabbit)
[4] = calculated from mmol/L values, read-out: ACE IC50 calculated in the units of mg/mL (converted)
[5] = synthesized peptides, read-out: ACE IC50

IC50 [1, 4] [µM] | IC50 [1, 5] [µM] | IC50 of ACE inhibitory activity (hippuric acid liberated from HHL by ACE, RP-HPLC) [3] [µM] | Molecule | further results
1470 | 1470 ± 80 | – | C[C@H](N)C(=O)N1CCC[C@H]1C(=O)N[C@@H](CO)C(=O)N[C@@H](Cc1ccc(O)cc1)C(=O)O [Ala-Pro-Ser-Tyr] (H-APSY-OH) | –
– | – | – | Ala-His-Ser-Tyr (AHSY; printed: Ala-His-Ser-Tyr) | IC50 ([2]; isolated from cuttlefish): 11.6 µM
– | – | 2000 | Tyr-Gln (peptide) | –
– | – | – | Gly-Gly-Tyr | IC50 [2]: 1.3 µM
– | – | 310 | Leu-Tyr (peptide) | –
– | – | 600 | Leu-Val-Ser (peptide) | –
2000 | 2000 ± 130 | – | NC(=O)CC[C@H](NC(=O)[C@@H](N)Cc1ccc(O)cc1)C(=O)O [Tyr-Gln] (H-Tyr-Gln-OH) | –
1480 | 1480 ± 110 | – | N=C(N)NCCC[C@H](N)C(=O)NCC(=O)NCC(=O)N[C@@H](Cc1ccc(O)cc1)C(=O)O [Arg-Gly-Gly-Tyr] (H-RGGY-OH) | –
599 | 600 ± 30 | – | CC(C)C[C@H](N)C(=O)N[C@H](C(=O)N[C@@H](CO)C(=O)O)C(C)C [Leu-Val-Ser] (H-Leu-Val-Ser-OH) | –
– | – | 1470 | APSY [Ala-Pro-Ser-Tyr] | –
– | – | 1480 | RGGY [Arg-Gly-Gly-Tyr] | –

From paper PMC7933229 (Scientific Reports, 2021)
